Reference: patent publication US12551565B2, “CD44 targeted multi-arm conjugate” (priority 2019, dated 2026)

Tested on: human small cell lung cancer cell NCI-H446
Assay: Xenograft model of human small cell lung cancer cell NCI-H446 in nude mice
Assay type: in vivo, BALB/c nude mice
Conditions: tail vein injection, QW×3, 6 mg·kg^−1

Compound: CCc1c2c(nc3ccc(OC(=O)N4CCC(N5CCCCC5)CC4)cc13)-c1cc3c(c(=O)n1C2)COC(=O)[C@]3(O)CC [Irinotecan]
- Relative tumor proliferation rate (% T/C): 66.0%
